Reference: publication doi:10.1101/2025.04.25.650653, “Hierarchical small molecule inhibition of MYST acetyltransferases” (bioRxiv, 2025)
Where two headings read alike, the source gives them in different places.

Columns and labels:
NCI-60 cell line panel = assay: NCI-60 cell line screen, sulforhodamine B growth inhibition; type: cell-based, human; conditions: most cases, 48 h
H4K16Ac (KAT8) = assay: Histone acetylation biomarker western blot, MCF-7; type: cell-based; conditions: MCF-7 cells, 24 h, up to 30 μM
Protocol: (§1) Target engagement was assessed using the panel of MYST-dependent histone acetylation biomarkers defined above. […] While WM-3835 has been applied to study KAT7, its initial publication alludes to its ability to inhibit both KAT6A/B and KAT7.[14], [43] […] All commercial vendors currently market WM-3835 as a KAT7 inhibitor.
(§2) General materials and methods
Total protein on western blots was […]
(§3) manufacturer's protocols.
KAT capture and competitive chemoproteomic profiling […]
(§4) for 2 hours, then lyophilized.
12 μL triethylamine. […] The beads were then magnetically separated […]
distinguish between tightly grouped and diffuse clusters, compactness was quantified by calculating the average pairwise Euclidean distance between all points within each cluster. Clusters with lower average

KAT6A MYST domain [1] = conditions: MYST domains, cited from earlier work
KAT6B MYST domain = test system: KAT6B MYST domain; set-up: method as in https://www.nature.com/articles/s41586-018-0387-5; conditions: MYST domains, 0.4 uM AcCoA, H4 peptide; ref https://www.nature.com/articles/s41586-018-0387-5; cited from earlier work
KAT6A MYST domain [2] = conditions: SPR, MYST domains, cited from earlier work
KAT5 MYST domain [3] = conditions: MYST domains, cited from earlier work
H3K14Ac (KAT7) = assay: Histone acetylation biomarker western blot, MCF-7; type: cell-based; conditions: MCF-7 cells, 24 h
KAT8 MYST domain = test system: KAT8 MYST domain; set-up: method as in https://www.nature.com/articles/s41586-018-0387-5; conditions: MYST domains, 0.4 uM AcCoA, H4 peptide; ref https://www.nature.com/articles/s41586-018-0387-5; cited from earlier work
KAT7 MYST domain [4] = conditions: MYST domains, cited from earlier work
[5] = test system: histone acetylation biomarkers for KAT6, KAT7, KAT8, and KAT5; assay: Histone acetylation biomarker panel by western blot, MCF-7; type: cell-based
From the text: Figure 5. Comparative cellular analysis of orthogonal MYST inhibitor chemotypes. (A) Chemical structures of commonly used MYST KAT inhibitors. Annotated target: KAT enzyme specified as target of each inhibitor in scientific or commercial vendor literature. Biomarker: KAT-regulated histone acetylation biomarker found to be modulated by each compound in this study. (B) Cellular response of histone acetylation biomarkers for KAT6, KAT7, KAT8, and KAT5 to treatment with drug-like MYST acetyltransferases inhibitors. MCF-7 cells were treated with escalating dosages (0.1, 1, 10, 30 μM.) of each compound for 24 h. […] Data is representative of n=2 biological replicates. […]
as §1, §2
Total protein on western blots was
as §3
KAT capture and competitive chemoproteomic profiling
as §4

KAT5 MYST domain [6] = conditions: SPR, MYST domains, as previously described (WM-8014); ref https://www.nature.com/articles/s41586-019-1835-6; cited from earlier work
H3K23Ac (KAT6A/B) = assay: Histone acetylation biomarker western blot, MCF-7; type: cell-based; conditions: MCF-7 cells, 24 h
[7] = test system: proteins captured by H3K14-CoA resin from HeLa nuclear extracts; assay: Proteome-wide competitive chemoproteomic profiling (H3K14-CoA beads, TMT LC-MS/MS); type: binding; conditions: for Log2FC (100nM) / (000nM): 100 nM WM-3835, H3K14-CoA beads; for Log2FC (100nM) / (000nM) / Log2FC (1000nM) / (000nM) / Log2FC (10000nM) / (000nM): TMT; for Log2FC (1000nM) / (000nM): 1000 nM WM-3835, H3K14-CoA beads; for Log2FC (10000nM) / (000nM): 10000 nM WM-3835, H3K14-CoA beads
KAT7 MYST domain [8] = conditions: SPR, MYST domains, as previously described (WM-8014); ref https://www.nature.com/articles/s41586-019-1835-6; cited from earlier work
[9] = protein MBTD1 (Q05BQ5, NuA4/Tip60)
[10] = protein MRGBP (Q9NV56, NuA4/Tip60)
[11] = protein TRRAP (Q9Y4A5, NuA4/Tip60)

**Q.** For C[C@H](CN[C@@H](C(=O)Nc1ccc(-c2cnn(C)c2)cn1)c1ccccc1)c1ccc(C#N)cc1 [CPI-1612], which “growth inhibition potency compared with PF-9363” value (NCI-60 cell line panel) is on record?
**A.** much more potent

**Q.** With Cc1cc(-c2ccccc2)cc(C(=O)NNS(=O)(=O)c2ccccc2)c1F [WM-8014] as the compound, how does the “inhibition of KAT8 (H4K16Ac)” value (H4K16Ac (KAT8)) read?
**A.** not KAT8

**Q.** And the IC50 (KAT6A MYST domain [1]; 0.4 uM AcCoA, H4 peptide, ref https://www.nature.com/articles/s41586-018-0387-5, read-out: KAT6A IC50)?
**A.** 0.0082 µM

**Q.** And the IC50 (KAT6B MYST domain)?
**A.** 28 nM

**Q.** And the Kd (KAT6A MYST domain [2]; ref https://www.nature.com/articles/s41586-018-0387-5)?
**A.** 5.1 nM

**Q.** And the IC50 (KAT5 MYST domain [3]; 5 uM AcCoA, H4 peptide, ref https://www.nature.com/articles/s41586-018-0387-5, read-out: KAT5 IC50)?
**A.** 0.224 µM

**Q.** What about the “doses at which KAT7 (H3K14Ac) is inhibited” value (H3K14Ac (KAT7)) of the same compound?
**A.** 10 to 30 µM

**Q.** What about the IC50 (KAT8 MYST domain) of the same compound?
**A.** 11000 nM

**Q.** And the IC50 (KAT7 MYST domain [4]; 1 uM AcCoA, H4 FL, ref https://www.nature.com/articles/s41586-018-0387-5, read-out: KAT7 IC50)?
**A.** 0.342 µM

**Q.** With O=C(NNS(=O)(=O)c1ccccc1F)c1cc(F)cc(-c2ccccn2)c1 [WM-1119] as the compound, how does the IC50 (KAT6A MYST domain [1]; 0.4 uM AcCoA, ref https://www.nature.com/articles/s41586-018-0387-5, read-out: KAT6A IC50 in μM (paper 1)) read?
**A.** 0.0063 µM

**Q.** And the IC50 (KAT6A MYST domain [1]; 1 μM acetyl-CoA, ref https://www.nature.com/articles/s41586-019-1835-6, read-out: KAT6A IC50 in μM (paper2))?
**A.** 0.077 µM

**Q.** And the IC50 (KAT5 MYST domain [3]; 1 μM acetyl-CoA, ref https://www.nature.com/articles/s41586-019-1835-6, read-out: KAT5 IC50 in μM (paper2))?
**A.** 9.8 µM

**Q.** What about the “inhibition of KAT7 (H3K14Ac) at the highest concentration tested” value (H3K14Ac (KAT7); 30 μM) of the same compound?
**A.** little inhibition of KAT7

**Q.** And the “effect on biomarkers other than KAT6A/B” value ([5]; MCF-7 cells, high concentrations)?
**A.** untouched

**Q.** What about the IC50 (KAT7 MYST domain [4]; 1 μM acetyl-CoA, ref https://www.nature.com/articles/s41586-019-1835-6, read-out: KAT7 IC50 in μM (paper2)) of the same compound?
**A.** 0.578 µM

**Q.** Which results are given for Cc1cc(-c2ccccc2)cc(C(=O)NNS(=O)(=O)c2cccc(O)c2)c1F [WM-3835]?
**A.** Kd (KAT5 MYST domain [6]): 500 nM; inhibition of KAT8 (H4K16Ac) (H4K16Ac (KAT8)): not KAT8; IC50 (KAT6A MYST domain [1]; 1 μM acetyl-CoA, WM-3835 sheet, ref https://www.nature.com/articles/s41586-019-1835-6, read-out: KAT6A IC50): 0.017 µM; inhibition of KAT6A/B-catalyzed H3K23Ac (H3K23Ac (KAT6A/B)): potently inhibits; competition of JADE2 versus BRPF3 capture ([7]; 0, 0.1, 1, 10 μM): differential competition of JADE2 and BRPF3 capture; Log2FC (100nM) / (000nM) ([7]; protein KAT14 (Q9H8E8, STAGA)): 0.25; Log2FC (1000nM) / (000nM) ([7]; protein KAT14 (Q9H8E8, STAGA)): -0.01; Log2FC (10000nM) / (000nM) ([7]; protein KAT14 (Q9H8E8, STAGA)): -0.28; Log2FC (100nM) / (000nM) [7, 9]: 0.4; Log2FC (1000nM) / (000nM) [7, 9]: 0.54; Log2FC (10000nM) / (000nM) [7, 9]: 0.24; Log2FC (100nM) / (000nM) [7, 10]: 0.37; Log2FC (1000nM) / (000nM) [7, 10]: 0.49; Log2FC (10000nM) / (000nM) [7, 10]: 0.27; Log2FC (100nM) / (000nM) [7, 11]: -0.03; Log2FC (1000nM) / (000nM) [7, 11]: 0.04; Log2FC (10000nM) / (000nM) [7, 11]: -0.06; Kd (KAT6A MYST domain [2]; as previously described (WM-8014), ref https://www.nature.com/articles/s41586-019-1835-6): 7 nM; Kd (KAT7 MYST domain [8]): 34 nM; IC50 (KAT5 MYST domain [3]; 1 μM acetyl-CoA, WM-3835 sheet, ref https://www.nature.com/articles/s41586-019-1835-6, read-out: KAT5 IC50): 0.312 µM; more potent inhibition of KAT6A/B (H3K23Ac) than KAT7 (H3K14Ac) ([5]; MCF-7 model, 24 h): ~ 100 fold; IC50 (KAT7 MYST domain [4]; 1 μM acetyl-CoA, WM-3835 sheet, ref https://www.nature.com/articles/s41586-019-1835-6, read-out: KAT7 IC50): 0.03 µM
